Laboratory results published in patent US7273848B2, “Apolipoprotein A-I agonists and their use to treat dyslipidemic disorders” (priority 1997, dated 2007).
Non-standard residues stand in square brackets, D forms with d. Residues, ends and D or L forms follow the SMILES beside them. Aib = CC(C)(N)C(=O)O

Key:
[1] = Circular dichroism helicity determination; assay type: physicochemical; conditions: percent helicity; for He (%) TFE: 5 μM peptide, 90% vol TFE; for He (%) TFE / He (%) SUVs: 37° C.; for He (%) free: unbound peptide 5 μM in 5 mM phosphate buffer, pH 7.4, 37° C.; for He (%) SUVs: peptide-SUV complexes (20:1 EPC:Chol., Ri=30 and Ri=50); for He (%) mics: peptide-micelle complexes, Ri=100, 37° C.
Procedure, shortened: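 Far-UV CD (190–260 nm) at 37° C on 5 μM peptide in 5 mM phosphate pH 7.4, free, with EPC:Chol 20:1 SUVs (Ri 30 or 50), lysophosphatidylcholine micelles (Ri 100) or 90% TFE. Spectra converted to molar ellipticity per residue; helicity from 222 nm ellipticity or CONTIN fitting to reference spectra, ±5%.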

[2] = biological target: T1, LCAT (purified from human plasma) (Homo sapiens, UniProt P04180); assay: LCAT activation assay; assay type: biochemical; conditions: LCAT activation as compared with native human ApoA-I (= 100%), equivalent masses
T1 construct: from tissue; host or cells: human plasma
T1 sequence (P04180 25-440): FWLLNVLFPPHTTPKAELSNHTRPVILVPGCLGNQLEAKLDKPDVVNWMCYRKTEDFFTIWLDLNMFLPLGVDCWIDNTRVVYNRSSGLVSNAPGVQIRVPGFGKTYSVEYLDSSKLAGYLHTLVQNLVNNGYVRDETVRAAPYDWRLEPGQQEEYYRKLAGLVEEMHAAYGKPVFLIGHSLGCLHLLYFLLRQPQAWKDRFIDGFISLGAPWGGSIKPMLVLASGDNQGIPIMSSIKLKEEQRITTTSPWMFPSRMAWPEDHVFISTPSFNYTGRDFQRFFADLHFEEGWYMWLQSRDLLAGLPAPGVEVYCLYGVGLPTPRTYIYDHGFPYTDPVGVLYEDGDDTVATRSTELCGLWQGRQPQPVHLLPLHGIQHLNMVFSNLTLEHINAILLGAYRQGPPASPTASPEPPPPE
Procedure, shortened: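 Activity was expressed as percentage conversion of radiolabelled cholesterol to cholesteryl ester, normalised to native ApoA-I as 100%. LCAT purified from human plasma was added to peptide-preincubated EPC or POPC/cholesterol (20:1) small unilamellar vesicles at pH 7.4. Specific activity is the peptide concentration reaching the conversion plateau at a fixed timepoint.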

## CC(C)C[C@H](NC(=O)[C@H](C)NC(=O)[C@H](CCC(=O)O)NC(=O)[C@H](CC(C)C)NC(=O)C(C)(C)NC(=O)[C@H](CCC(=O)O)NC(=O)[C@H](CC(N)=O)NC(=O)[C@H](CC(C)C)NC(=O)[C@H](CCCCN)NC(=O)[C@H](CCC(=O)O)NC(=O)[C@H](CCCNC(=N)N)NC(=O)[C@H](Cc1ccccc1)NC(=O)[C@H](CC(C)C)NC(=O)[C@H](CC(=O)O)NC(=O)[C@H](CC(C)C)NC(=O)[C@@H](NC(=O)[C@@H]1CCCN1)C(C)C)C(=O)N[C@@H](CCCCN)C(=O)N[C@@H](CCC(N)=O)C(=O)N[C@@H](CCCCN)C(=O)N[C@@H](CC(C)C)C(=O)N[C@@H](CCCCN)C(=O)O [compound 46, PVLDLFREKLNEXLEALKQKLK] (H-PVLDLFREKLNE[Aib]LEALKQKLK-OH)
[1]
  He (%) TFE: 85%
  He (%) free: 30%
  He (%) SUVs: 58%
  He (%) mics: 86%
[2]
  ACTIVITY (%) LCAT: 23%

## CC(C)C[C@H](NC(=O)[C@H](C)NC(=O)[C@H](CCC(=O)O)NC(=O)[C@H](CC(C)C)NC(=O)C(C)(C)NC(=O)[C@H](CCC(=O)O)NC(=O)[C@H](Cc1c[nH]c2ccccc12)NC(=O)[C@H](CC(C)C)NC(=O)[C@H](CC(C)C)NC(=O)[C@H](CCC(=O)O)NC(=O)[C@H](CCCNC(=N)N)NC(=O)[C@H](Cc1ccccc1)NC(=O)[C@H](CC(C)C)NC(=O)[C@H](CC(=O)O)NC(=O)[C@H](CC(C)C)NC(=O)[C@@H](NC(=O)[C@@H]1CCCN1)C(C)C)C(=O)N[C@@H](CCCCN)C(=O)N[C@@H](CCC(N)=O)C(=O)N[C@@H](CCCCN)C(=O)N[C@@H](CC(C)C)C(=O)N[C@@H](CCCCN)C(=O)O [compound 50, PVLDLFRELLWEXLEALKQKLK] (H-PVLDLFRELLWE[Aib]LEALKQKLK-OH)
[1]
  He (%) TFE: 76%
  He (%) free: 68%
  He (%) SUVs: 89%
  He (%) mics: 84%
[2]
  ACTIVITY (%) LCAT: 21%

## CC(C)C[C@H](NC(=O)[C@H](C)NC(=O)[C@H](CCC(=O)O)NC(=O)[C@H](CC(C)C)NC(=O)C(C)(C)NC(=O)[C@H](CCC(=O)O)NC(=O)[C@H](CC(N)=O)NC(=O)[C@H](CC(C)C)NC(=O)[C@H](CC(C)C)NC(=O)[C@H](CCC(=O)O)NC(=O)[C@H](Cc1c[nH]c2ccccc12)NC(=O)[C@H](Cc1ccccc1)NC(=O)[C@H](CC(C)C)NC(=O)[C@H](CC(=O)O)NC(=O)[C@H](CC(C)C)NC(=O)[C@@H](NC(=O)[C@@H]1CCCN1)C(C)C)C(=O)N[C@@H](CCCCN)C(=O)N[C@@H](CCC(N)=O)C(=O)N[C@@H](CCCCN)C(=O)N[C@@H](CC(C)C)C(=O)N[C@@H](CCCCN)C(=O)O [compound 51, PVLDLFWELLNEXLEALKQKLK] (H-PVLDLFWELLNE[Aib]LEALKQKLK-OH)
[1]
  He (%) TFE: 73%
  He (%) free: 63%
  He (%) SUVs: 81%
  He (%) mics: 82%
[2]
  ACTIVITY (%) LCAT: 20%

## CC(C)C[C@H](NC(=O)[C@H](C)NC(=O)[C@H](CCC(=O)O)NC(=O)[C@H](CC(C)C)NC(=O)C(C)(C)NC(=O)[C@H](CCC(=O)O)NC(=O)[C@H](CC(N)=O)NC(=O)[C@H](CC(C)C)NC(=O)[C@H](CCCCN)NC(=O)[C@H](CCC(=O)O)NC(=O)[C@H](CCCNC(=N)N)NC(=O)[C@H](Cc1c[nH]c2ccccc12)NC(=O)[C@H](CCC(=O)O)NC(=O)[C@H](CC(=O)O)NC(=O)[C@H](CC(C)C)NC(=O)[C@@H](NC(=O)[C@@H]1CCCN1)C(C)C)C(=O)N[C@@H](CCCCN)C(=O)N[C@@H](CCC(N)=O)C(=O)N[C@@H](CCCCN)C(=O)N[C@@H](CC(C)C)C(=O)N[C@@H](CCCCN)C(=O)O [compound 62, PVLDEWREKLNEXLEALKQKLK] (H-PVLDEWREKLNE[Aib]LEALKQKLK-OH)
[1]
  He (%) free: 15%
  He (%) SUVs: 43%
  He (%) mics: 85%
[2]
  ACTIVITY (%) LCAT: 16%

## CC(C)C[C@H](NC(=O)[C@H](C)NC(=O)[C@H](CCC(=O)O)NC(=O)[C@H](CC(C)C)NC(=O)C(C)(C)NC(=O)[C@H](CCC(=O)O)NC(=O)[C@H](Cc1ccc(O)cc1)NC(=O)[C@H](CC(C)C)NC(=O)[C@H](CC(C)C)NC(=O)[C@H](CCC(=O)O)NC(=O)[C@H](CCCNC(=N)N)NC(=O)[C@H](Cc1ccccc1)NC(=O)[C@H](CCC(=O)O)NC(=O)[C@H](CC(=O)O)NC(=O)[C@H](CC(C)C)NC(=O)[C@@H](NC(=O)[C@@H]1CCCN1)C(C)C)C(=O)N[C@@H](CCCCN)C(=O)N[C@@H](CCC(N)=O)C(=O)N[C@@H](CCCCN)C(=O)N[C@@H](CC(C)C)C(=O)N[C@@H](CCCCN)C(=O)O [compound 70, PVLDEFRELLYEXLEALKQKLK] (H-PVLDEFRELLYE[Aib]LEALKQKLK-OH)
[1]
  He (%) TFE: 66%
  He (%) free: 27%
  He (%) SUVs: 33%
  He (%) mics: 78%
[2]
  ACTIVITY (%) LCAT: 12%

## CC(C)C[C@H](NC(=O)[C@H](C)NC(=O)[C@H](CCC(=O)O)NC(=O)[C@H](CC(C)C)NC(=O)C(C)(C)NC(=O)[C@H](CCC(=O)O)NC(=O)[C@H](Cc1ccccc1)NC(=O)[C@H](CC(C)C)NC(=O)[C@H](CC(C)C)NC(=O)[C@H](CCC(=O)O)NC(=O)[C@H](CCCNC(=N)N)NC(=O)[C@H](Cc1ccccc1)NC(=O)[C@H](CCC(=O)O)NC(=O)[C@H](CC(=O)O)NC(=O)[C@H](CC(C)C)NC(=O)[C@@H](NC(=O)[C@@H]1CCCN1)C(C)C)C(=O)N[C@@H](CCCCN)C(=O)N[C@@H](CCC(N)=O)C(=O)N[C@@H](CCCCN)C(=O)N[C@@H](CC(C)C)C(=O)N[C@@H](CCCCN)C(=O)O [compound 76, PVLDEFRELLFEXLEALKQKLK] (H-PVLDEFRELLFE[Aib]LEALKQKLK-OH)
[1]
  He (%) TFE: 66%
  He (%) free: 41%
  He (%) mics: 88%
[2]
  ACTIVITY (%) LCAT: 9%

## CC(C)C[C@@H](NC(=O)[C@@H](C)NC(=O)[C@@H](CCC(=O)O)NC(=O)[C@@H](CC(C)C)NC(=O)[C@@H](CC(C)C)NC(=O)[C@@H](CCC(=O)O)NC(=O)[C@@H](CCC(N)=O)NC(=O)[C@@H](CC(C)C)NC(=O)[C@@H](CC(C)C)NC(=O)[C@@H](CCC(=O)O)NC(=O)[C@@H](CCCCN)NC(=O)[C@@H](CC(C)C)NC(=O)[C@@H](CC(C)C)NC(=O)[C@@H](CCC(=O)O)NC(=O)[C@@H](CC(C)C)NC(=O)[C@@H](CC(C)C)NC(=O)[C@H]1CCCN1)C(=O)N[C@H](CCCCN)C(=O)N[C@H](CCC(N)=O)C(=O)N[C@H](CCCCN)C(=O)N[C@H](CC(C)C)C(=O)N[C@H](CCCCN)C(=O)O [compound 87, pllellkellqellealkqklk] (H-[dP][dL][dL][dE][dL][dL][dK][dE][dL][dL][dQ][dE][dL][dL][dE][dA][dL][dK][dQ][dK][dL][dK]-OH)
[1]
  He (%) TFE: 100%
  He (%) free: 100%
  He (%) mics: 100%
[2]
  ACTIVITY (%) LCAT: 7%
